Data taken from US20090156674A1, “Valnemulin Salts with Organic Acids” (priority 2005, published 2009).
Where a name gives a salt, the structure may show the parent alone.

What was measured:
[1] = Stability of valnemulin acid addition salts in the pelleting procedure for animal feed; assay type: physicochemical; conditions: pelleting at 75° C.; wheat-based animal feed; 100 ppm valnemulin in the feed
Procedure: In order to test the stability of the valnemulin acid addition salts in animal feed, the calculated amount of the acid addition salt (corresponding to a target dose of 100 ppm) is added to ca. 4 kg of wheat-based animal feed and mixed in a high-speed laboratory mixer for 60 seconds to form a first premix (PM1). The ca. 4 kg of premix PM1 is then transferred to a horizontal mixer and mixed with 21 kg of the same feed for a further 6 minutes to form a further premix (PM2). The ca. 25 kg of premix PM2 is transferred to a vertical mixer and intimately mixed with a further 175 kg of the same animal feed for 8 minutes, whereupon a homogeneous, treated mixture is obtained, which contains valnemulin concentrations corresponding to the target dose of 100 ppm. Prior to further processing, samples of ca. 100 g each are taken from the upper, centre and lower part of the medicinal feed mixture, in order to test its homogeneity. In addition, further samples are taken randomly for use in stability tests. The finished, treated medicinal feed is now ready for pelleting. […] The 200 kg of finished medicinal feed is then fed continuously into the pelleting press of the feed mill over the course of ca. 20 mins. Afterwards, the pellets are dried in batches in a continuous stream of air, and cooled. To examine the homogeneity of the pelleted medicinal feed, several samples of ca. 100 g each are taken at the start, middle and end of the pelleting process. In addition, samples are taken in a random order from each batch, in order to test the stability in storage. […] In the following table 1, by way of example, the stabilities of different acid addition salts of valnemulin in the pelleting procedure for the animal feed are compared.

[2] = Stability of valnemulin during production and storage of feed pellets (background statements); assay type: physicochemical
Excerpt: It has been shown that valnemulin is rather unstable when producing pelleted feed, particularly when in contact with the feed material, especially constituents of vegetable or animal origin. This leads to substantial losses already at the preparation stage. In the preparation of pelleted feed, the dried organic starting material of animal or vegetable origin is ground, mixed intimately with the admixtures, vitamins, trace elements and other additives, i.e. substantially homogenized, and then optionally moistened with ca. 5 to 10% by weight water and compressed into feed pellets at elevated temperatures ranging from ca. 60 to 100° C. at pressures of ca. 1 to 100 kbar. Short-term, local temperature peaks in the press, so-called flashes, even reach 200° C. for a short time. The retention time of the mass in the press is generally from ca. 5 to 180 seconds and depends inter alia on the size of the pellets.
Whereas valnemulin in the form of the dried, amorphous hydrochloride salt withstands these temperatures for a short time without significant decomposition and can be stored at room temperature even for a few months without any measurable loss of active ingredient, this active ingredient decomposes relatively rapidly under pressure and in intimate contact with animal or vegetable feed constituents and at the prevailing elevated temperatures. […]

Loss of active substance in the pelleting procedure, average loss [1]	content of active ingredient in finished pellets on storage ([2]; finished pellets, room temperature, after three months)	active ingredient lost in compression into feed pellets ([2]; raised pressure and elevated temperature kept as short as possible, pellets immediately cooled to room temperature, contact with feed constituents)	Structure (SMILES)
0.3%			C=CC1(C)CC(OC(=O)CSC(C)(C)CNC(=O)C(N)C(C)C)C2(C)C(C)CCC3(CCC(=O)C32)C(C)C1O.O=C(O)C(O)C(O)C(=O)O [valnemulin D-hydrogen tartrate, Valnemulin D-Hydrogen Tartrate]
11.6%			C=C[C@]1(C)C[C@@H](OC(=O)CSC(C)(C)CNC(=O)[C@H](N)C(C)C)[C@]2(C)[C@H](C)CC[C@]3(CCC(=O)[C@H]32)[C@@H](C)[C@@H]1O [valnemulin hydrochloride]
0.2%			C=C[C@]1(C)C[C@@H](OC(=O)CSC(C)(C)CNC(=O)[C@H](N)C(C)C)[C@]2(C)[C@H](C)CC[C@]3(CCC(=O)[C@H]32)[C@@H](C)[C@@H]1O.O=C(O)/C=C/C(=O)O [valnemulin hydrogen fumarate, Valnemulin Hydrogen Fumarate]
	below 60%	one quarter to one third	C=C[C@]1(C)C[C@@H](OC(=O)CSC(C)(C)CNC(=O)C(N)C(C)C)[C@]2(C)C(C)CC[C@]3(CCC(=O)C32)[C@@H](C)[C@@H]1O (some centres unmarked) [valnemulin, Valnemulin]
